# Experimental data published in publication PMC3974814, “In Vitro Evaluation of the Inhibitory Potential of Pharmaceutical Excipients on Human Carboxylesterase 1A and 2” (PLoS ONE, 2014).
# Key:
# [1] = molecular target: T1, human liver microsomes (HLM) (Homo sapiens, UniProt P23141); assay: Imidapril hydrolase activity (imidaprilat formation) of HLM; assay type: biochemical
# T1 construct: Pooled human liver microsomes (HLM) were purchased from BD Gentest; tissue BD Gentest (Woburn, MA); host or cells: pooled human liver microsomes
# T1 sequence (P23141 18-567): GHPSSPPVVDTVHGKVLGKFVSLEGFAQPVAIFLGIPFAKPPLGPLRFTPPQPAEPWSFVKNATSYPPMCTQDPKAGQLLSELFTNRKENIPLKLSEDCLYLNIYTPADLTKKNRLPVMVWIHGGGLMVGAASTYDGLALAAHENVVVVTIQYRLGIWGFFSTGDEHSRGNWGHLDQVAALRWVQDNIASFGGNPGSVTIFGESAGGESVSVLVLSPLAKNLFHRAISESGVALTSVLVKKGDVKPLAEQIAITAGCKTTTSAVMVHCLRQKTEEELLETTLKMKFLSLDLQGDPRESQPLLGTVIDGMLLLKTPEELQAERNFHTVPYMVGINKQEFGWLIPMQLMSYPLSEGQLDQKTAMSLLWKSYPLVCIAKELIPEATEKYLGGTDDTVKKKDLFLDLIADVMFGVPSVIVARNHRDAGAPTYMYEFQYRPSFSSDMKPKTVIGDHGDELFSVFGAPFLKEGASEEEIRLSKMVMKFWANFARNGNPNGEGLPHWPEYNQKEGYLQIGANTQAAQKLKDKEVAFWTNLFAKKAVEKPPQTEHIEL
# Experimental: Formation of imidaprilat from imidapril was determined according to the method described previously with a slight modification. The incubation mixture (200 μl of total volume), including the microsomes, 100 mM Tris-HCl buffer (pH 7.4) and inhibitors, was preincubated at 37°C for 2 min. The reaction was initiated by the addition of imidapril (100 μM), followed by incubation of the mixture at 37°C for 15 min. The reaction was terminated by adding 200 μl of ice-cold ethyl acetate and the mixture was next dried under N2. Cetirizine was added as an internal standard. After centrifugation at 15000 g for 5 min, imidaprilat in the supernatant (10 μl) was quantified employing a liquid chromatography-tandem mass spectrometry system. Diamonsil C18 (5 μm,150×2.1 mm) was used as the analytical column, with acetonitrile-0.1% (v/v) formic acid (1∶2, v/v) as the mobile phase at a flow rate of 0.3 mL·min^−1. […]
# The inhibitory effects of 25 excipients on imidapril and CPT-11 hydrolase activities were investigated. […] All data were analysed using the mean of duplicate determinations. […]
# (§1) The Ki, Km and Vmax values and inhibition types were determined by fitting the kinetic data to a competitive, noncompetitive, uncompetitive or mixed inhibition model by the Enzyme Kinetics Module using SigmaPlot 12.0 (Systat Software, Inc., San Jose, CA). […]
# recombinant human CES1A1 [2] = molecular target: T2, recombinant human CES1A1 (Homo sapiens, UniProt P23141); assay: p-Nitrophenyl acetate hydrolase activity of recombinant CES1A1; assay type: biochemical
# T2 construct: purchased BD Gentest (Woburn, MA); host or cells: baculovirus-insect cells
# T2 sequence (P23141 18-567): T1 sequence (P23141 18-567)
# Experimental: (§2) p-Nitrophenyl acetate hydrolase activity was determined according to the methods described previously.
# (§3) To compare the inhibitory effects, the enzyme activities at 150 μM p-nitrophenyl acetate were examined. The concentrations of the tested excipients were 500 μM, except that F68, EL35, RH40, lecithin, PVP and Sodium alginate were 100 μg/ml. […] The concentration range of inhibitors was as follows: SLS, 0.02–0.5 μg/ml, RH40, 0.1–5 μg/ml, Tween 20, 0.5–15 μg/ml, and EL 35, 3–40 μg/ml.
# recombinant human CES1A1 [3] = molecular target: T2, recombinant human CES1A1; assay: Imidapril hydrolase activity (imidaprilat formation) of recombinant CES1A1; assay type: biochemical
# Experimental: Formation of imidaprilat from imidapril was determined according to the method described previously with a slight modification. The incubation mixture (200 μl of total volume), including the microsomes, 100 mM Tris-HCl buffer (pH 7.4) and inhibitors, was preincubated at 37°C for 2 min. The reaction was initiated by the addition of imidapril (100 μM), followed by incubation of the mixture at 37°C for 15 min. The reaction was terminated by adding 200 μl of ice-cold ethyl acetate and the mixture was next dried under N2. Cetirizine was added as an internal standard. After centrifugation at 15000 g for 5 min, imidaprilat in the supernatant (10 μl) was quantified employing a liquid chromatography-tandem mass spectrometry system. Diamonsil C18 (5 μm,150×2.1 mm) was used as the analytical column, with acetonitrile-0.1% (v/v) formic acid (1∶2, v/v) as the mobile phase at a flow rate of 0.3 mL·min^−1. The calibration curve of imidaprilat in the incubation mixture was linear over a concentration range of 5–1000 ng·ml^−1 (r = 0.9991). Interday and intraday coefficients of variation of the different quality control samples were both less than 10%.
# The inhibitory effects of 25 excipients on imidapril and CPT-11 hydrolase activities were investigated. These excipients were classified into 6 groups based on their chemical and physical characteristics: (1) Adhesives: HPC, PVP, CMC-Na, PEG4000, PEG6000 and sodium alginate; (2) Fillers: lactose, MCC and mannitol; (3) Co-solvents: PG, glycerin, PEG200 and PEG400; (4) Surfactants: Tween 20, Tween 80, SLS, S40, F68, Triton X-100, RH40 and EL35; (5) Absorption enhancers: lecithin and oleic acid; (6)Antioxidants: Vit.C and NaHSO3. […] All data were analysed using the mean of duplicate determinations. […]
# as §1
# recombinant human CES2 = molecular target: T3, recombinant human CES2 (Homo sapiens, UniProt O00748); assay: p-Nitrophenyl acetate hydrolase activity of recombinant CES2; assay type: biochemical
# T3 construct: purchased BD Gentest (Woburn, MA); host or cells: baculovirus-insect cells
# T3 sequence (O00748 27-559): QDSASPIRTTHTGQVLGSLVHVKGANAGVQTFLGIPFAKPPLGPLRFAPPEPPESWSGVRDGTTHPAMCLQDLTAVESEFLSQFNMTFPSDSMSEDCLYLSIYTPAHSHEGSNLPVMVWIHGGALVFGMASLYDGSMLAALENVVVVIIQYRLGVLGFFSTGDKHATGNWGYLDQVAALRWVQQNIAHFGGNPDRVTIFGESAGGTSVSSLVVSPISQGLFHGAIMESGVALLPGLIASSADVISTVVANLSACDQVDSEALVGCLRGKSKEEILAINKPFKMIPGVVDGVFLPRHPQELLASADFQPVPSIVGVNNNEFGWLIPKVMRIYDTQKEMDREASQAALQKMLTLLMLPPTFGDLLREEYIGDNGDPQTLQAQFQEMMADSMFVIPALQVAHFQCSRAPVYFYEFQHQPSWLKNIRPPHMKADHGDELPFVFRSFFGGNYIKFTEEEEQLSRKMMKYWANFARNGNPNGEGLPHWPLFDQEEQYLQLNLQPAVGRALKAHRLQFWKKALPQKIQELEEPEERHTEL
# Experimental: as §2, §3
# CES1A1 and CES2 = molecular target: CES1A1 and CES2; parameters: method as in PMID 20810539; conditions: human CES enzyme activity; isoform per drug not stated; read-out: inhibition constant (Ki); cited from earlier work
# [4] = 150 μM p-nitrophenyl acetate, excipients 500 μM except F68, EL35, RH40, lecithin, PVP, sodium alginate 100 μg/ml
"inhibition type, imidapril hydrolase activity [1]","p-nitrophenyl acetate hydrolase activity, percentage of control (recombinant human CES1A1 [2]; [4]) [%]","IC50, p-nitrophenyl acetate hydrolase activity (recombinant human CES1A1 [2]; 150 μM substrate) [µg/mL]","imidapril hydrolase activity, percentage of control (recombinant human CES1A1 [3]; 100 μM imidapril, excipients 500 μM except F68, EL35, RH40, lecithin, PVP, sodium alginate 100 μg/ml, control 1.83 nmol/min/mg) [%]","inhibition type, imidapril hydrolase activity (recombinant human CES1A1 [3]; recombinant CES1A1)","Ki, imidapril hydrolase activity (recombinant human CES1A1 [3]; recombinant CES1A1, imidapril 25-200 μM, mean ± S.E.) [µg/mL]","p-nitrophenyl acetate hydrolase activity, percentage of control (recombinant human CES2; [4])","IC50, p-nitrophenyl acetate hydrolase activity (recombinant human CES2; 150 μM substrate) [µg/mL]",SMILES,Ki (CES1A1 and CES2) [nM]
competitive-type,3.6,0.20,2.9,competitive-type,0.04 ± 0.01,30–60%,0.30,"CCCCCCCCCCCCOS(=O)(=O)[O-].[Na+] [SLS, sodium lauryl sulphate]",
,,,,,,,,CCC(C)(C)C(=O)O[C@H]1C[C@@H](C)C=C2C=C[C@H](C)[C@H](CC[C@@H]3C[C@@H](O)CC(=O)O3)[C@H]21 [simvastatin],110
,,,,,,,,Cc1c(C)c2c(c(C)c1O)CCC(C)(COc1ccc(CC3SC(=O)NC3=O)cc1)O2 (stereo not shown) [troglitazone],620
